The values that follow come from US20240166646A1, “1H-PYRROLO[2,3-B]PYRIDINE DERIVATIVES AS BCL-2 INHIBITORS FOR THE TREATMENT OF NEOPLASTIC AND AUTOIMMUNE DISEASES” (Newave Pharmaceutical Inc., priority 2020, published 2024).

One test addresses Bcl-2 (Homo sapiens (Human), UniProt P10415). Briefly: Bcl-2 competition binding (fluorescence polarization) assay. As to conditions: fluorescein labeled BH3 peptide 15 nM, Bcl-2 protein 30 nM, 3 hours of incubation at room temperature. An outline of the steps:
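Fluorescence polarization competition of 15 nM labeled 23-mer BH3 peptide with 30 nM purified Bcl-2, in 20 mM Hepes pH 7.0, 50 mM KCl, 5 mM MgCl2, 20 mM Na2MoO4, 0.1 mg/ml bovine gamma globulin, 0.01% NP40. Compounds 20 μM to 2 nM final; mP read after 3 h at room temperature, background-subtracted. IC50 from sigmoidal dose-response fit.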
On the technique in general: In fluorescence polarisation assays a small probe gives low polarisation when free and higher when bound to something large.

Test [1] concerns BCL-2-dependent acute lymphoblastic leukemia (ALL) cell line RS4; 11 with G101V mutation. Briefly: In vitro anti-proliferation assay (ATPlite) in RS4; 11 with G101V mutation. It counts as cell-based. As to conditions: about 72 hours incubation, medium with 5% FBS or 10% normal human serum, ATPlite luminescence. The method in brief:
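About 1×10^4 cells per well exposed to a compound dose range for about 72 h in medium with 5% FBS or 10% normal human serum. ATP content read by ATPlite luminescence after lysis. IC50 derived from dose-response.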
For orientation: ATP-based viability assays read luminescence as a measure of living cells.

Structures can show the parent of a compound that is named as a salt.

Chain of Bcl-2 (P10415 whole entry): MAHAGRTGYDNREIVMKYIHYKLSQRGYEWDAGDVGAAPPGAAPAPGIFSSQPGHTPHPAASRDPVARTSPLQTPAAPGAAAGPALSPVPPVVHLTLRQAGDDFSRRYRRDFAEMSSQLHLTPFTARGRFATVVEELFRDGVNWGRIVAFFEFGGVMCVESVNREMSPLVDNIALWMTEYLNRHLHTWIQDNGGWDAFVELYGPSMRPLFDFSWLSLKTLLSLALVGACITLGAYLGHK

The term IC50 denotes the midpoint of a concentration-inhibition curve. For `CC(C)Oc1ccccc1[C@@H]1CCCN1C1CC2(CCN(c3ccc(C(=O)NS(=O)(=O)c4ccc(NCC5CCOCC5)c([N+](=O)[O-])c4)c(N4c5cc6cc[nH]c6nc5O[C@H]5COCC[C@@H]54)c3)CC2)C1` [Example 62, 4-(2-((S)-2-(2-isopropoxyphenyl)pyrrolidin-1-yl)-7-azaspiro[3.5]nonan-7-yl)-N-((3-nitro-4-(((tetrahydro-2H-pyran-4-yl)methyl)amino)phenyl)sulfonyl)-2-((5aS,9aR)-6,7,9,9a-tetrahydro. 1H-pyrano[3,4-b]pyrrolo[3′,2′:5,6]pyrido[3,2-e][1,4]oxazin-5(5aH)-yl)benzamide hydrochloride], the values for the IC50 (at Bcl-2; in test [1]) were 0.41 nM and 121 nM, respectively.
Turning to `CC(C)c1ccsc1[C@@H]1CCCN1C1CC2(CCN(c3ccc(C(=O)NS(=O)(=O)c4ccc(NCC5CCOCC5)c([N+](=O)[O-])c4)c(N4c5cc6cc[nH]c6nc5O[C@@H]5COC[C@H]54)c3)CC2)C1` [Example 63, 4-(2-((S)-2-(3-isopropylthiophen-2-yl)pyrrolidin-1-yl)-7-azaspiro[3.5]nonan-7-yl)-N-((3-nitro-4-(((tetrahydro-2H-pyran-4-yl)methyl)amino)phenyl)sulfonyl)-2-((5aR,8aS)-5a,6,8,8a-tetrahydrofuro[3,4-b]pyrrolo[3′,2′:5,6]pyrido[3,2-e][1,4]oxazin-5(1H)-yl)benzamide hydrochloride], the figures for the IC50 (at Bcl-2; in test [1] (RS4-11)) were 0.314 nM and 49.6 nM, respectively.
On to `CC(C)Oc1ccccc1[C@@H]1CCCN1C1CC2(CCN(c3ccc(C(=O)NS(=O)(=O)c4ccc(NCC5CCOCC5)c([N+](=O)[O-])c4)c(N4c5cc6cc[nH]c6nc5O[C@H]5COCC[C@H]54)c3)CC2)C1` [Example 64, 2-[(3R,8R)-2,5-dioxa-9,15,17-triazatetracyclo[8.7.0.0^{3,8}.0^{12,16}]heptadeca-1(10),11,13,16-tetraen-9-yl]-4-{2-[(2S)-2-(2-isopropoxyphenyl)pyrrolidin-1-yl]-7-azaspiro[3.5]nonan-7-yl}-N-{3-nitro-4-[(oxan-4-ylmethyl)amino]benzenesulfonyl}benzamide], for which the IC50 at Bcl-2 is 0.341 nM; in test [1], 62.4 nM.
With `Cc1ccccc1[C@@H]1COCCCN1C1CC2(CCN(c3ccc(C(=O)NS(=O)(=O)c4ccc(NCC5CCOCC5)c([N+](=O)[O-])c4)c(N4c5cc6cc[nH]c6nc5O[C@@H]5COC[C@H]54)c3)CC2)C1` [Example 65, N-((3-nitro-4-(((tetrahydro-2H-pyran-4-yl)methyl)amino)phenyl)sulfonyl)-2-((5aR,8aS)-5a,6,8,8a-tetrahydrofuro[3,4-b]pyrrolo[3′,2′:5,6]pyrido[3,2-e][1,4]oxazin-5(1H)-yl)-4-(2-((R)-3-(o-tolyl)-1,4-oxazepan-4-yl)-7-azaspiro[3.5]nonan-7-yl)benzamide], the figures for the IC50 (on Bcl-2; in test [1] (RS4-11)) were 0.425 nM and more than 1000 nM, respectively.
`Cc1ccccc1[C@H]1COCCCN1C1CC2(CCN(c3ccc(C(=O)NS(=O)(=O)c4ccc(NCC5CCOCC5)c([N+](=O)[O-])c4)c(N4c5cc6cc[nH]c6nc5O[C@@H]5COC[C@H]54)c3)CC2)C1` [Example 66, 2-[(11R,15S)-13,16-dioxa-2,4,10-triazatetracyclo[7.7.0.0^{3,7}.0^{11,15}]hexadeca-1(9),2,5,7-tetraen-10-yl]-4-{2-[(3S)-3-(2-methylphenyl)-1,4-oxazepan-4-yl]-7-azaspiro[3.5]nonan-7-yl}-N-{3-nitro-4-[(oxan-4-ylmethyl)amino]benzenesulfonyl}benzamide]: the IC50 on Bcl-2 came out at 0.564 nM; in test [1], 296 nM.
